According to patent US20210145801A1, “THERAPY FOR PROTEIN MISFOLDING DISEASE” (WREN THERAPEUTICS LIMITED, priority 2018, published 2021):
Entries after “also recorded” stand apart in the source; their conditions may differ. Where two headings read alike, the source gives them in different places.

Key:
Aβ42 = target: T1, Aβ42 (Homo sapiens, UniProt P05067); assay: Seeded Aβ42 aggregation kinetics (2% or 50% preformed fibril seeds); type: biochemical; conditions: 2 μM Aβ42; 50% seeds; up to 20-fold excess
T1 construct: made in house; host or cells: E. coli BL21 Gold (DE3)
Protocol: For the seeded experiments, preformed fibrils were prepared just prior to the experiment. Kinetic experiments were set up as described above for 5 μM Aβ42 samples in 20 mM sodium phosphate buffer, pH 8 with […] EDTA, 0.02% NaN3 and 20 μM ThT. The ThT fluorescence was monitored for 3 hours to verify the formation of fibrils. Samples were then collected from the wells into low-binding tubes. Under the considered conditions (i.e. 5 μM Aβ42), the monomer concentration is negligible at equilibrium. The final concentration of fibrils, in monomer equivalents, was considered equal to the initial concentration of monomer. Fibrils were then added to freshly prepared monomer in order to reach either 2% or 50% final concentration of seeds in the absence or the presence of Netoglitazone.
Inhibitors can interfere with the aggregation process by inhibiting one or more of the individual microscopic steps. […]

[1] = Pharmacokinetic study, single oral dose; type: in vivo, male, Swiss Albino mice; conditions: 11.5 mg/kg p.o.; for concentration at 6 h: oral
Protocol: The pharmacokinetic profile was assessed in male, Swiss Albino mice in a discrete study using a single per oral dose of Netoglitazone (11.5 mg/kg, 30 μmoles/kg) formulated as a solution in 10% NMP/90% Solutol (as a 20% v/v solution in PBS). The dosing concentration was 2.3 mg/mL with a dosing volume of 5.0 mL/kg. Data were derived from the average of 3 animals per timepoint (terminal sampling). Plasma samples were collected at 0.25, 0.50, 1.0, 2.0, 4.0, 6.0, 8.0 and 24 hours by protein precipitation method with acetonitrile. Brain samples were collected at 6.0 and 24 hours by brain homogenisation and protein precipitation method with acetonitrile. Cerebrospinal fluid (CSF) samples were collected at 6.0 and 24 hours by protein precipitation method with acetonitrile. Samples were analysed using UHPLC with TOF mass spectrometry using electrospray ionisation.

Aβ plaques = assay: Aβ plaque quantification in APPPS1 transgenic mice; type: in vivo; conditions: 75 mg/kg/day once daily for 90 days from 60 days of age
Protocol: APPPS1 transgenic mice were used in the study, which co-express the Swedish mutation […] and PS1 mutation L166P under the control of the neuron-specific Thy-1 promoter on a C57BL/6 genetic background. APPPS1 mice were habituated ahead of the study to voluntarily drink a condensed milk formulation from a pipette. The condensed milk used in the study is commercially available (Migros) and contains milk, sugar, stabilizer E339. Body weight was measured ahead of commencing the study to calculate the dose of Netoglitazone for each mouse and to calculate the total blood volume. Mice aged 60 days old were then dosed once daily with a pipette for 90 days. The pipette contained 40-80 μL consisting of either condensed milk (2 ml/kg/day) only (placebo cohort) or condensed milk (2 ml/kg/day) and Netoglitazone (75 mg/kg/day). Blood was collected via retro-orbital sampling to monitor the concentration of Netoglitazone after 7 days and 28 days. Visual monitoring of the mice and measurement of body weight were conducted daily and every other week respectively. At the end of the experiment (i.e. after 90 days of once daily treatment such that mice were 150 days old), mice were euthanized and their brains were analyzed as outlined below. […]
The image files were analysed using custom-coded software. […]

[2] = male, Swiss Albino, mouse, plasma, po, single dose

T1 sequence (P05067 671-713): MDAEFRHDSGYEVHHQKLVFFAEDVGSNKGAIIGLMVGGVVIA

With O=C1NC(=O)C(Cc2ccc3cc(OCc4ccccc4F)ccc3c2)S1 (stereo not shown) [Netoglitazone] the “Effect on aggregation kinetics / elongation (k+) with 50% preformed seeds” value (Aβ42) was “did not affect the aggregation kinetics; also recorded: does not affect the elongation rates of Aβ42 aggregation”, the “Brain penetration across the blood brain barrier” value [1] was “good brain penetration across the blood brain barrier” and the concentration at 6 h ([1]; male, Swiss Albino, mouse, CSF, read-out: CSF levels) was 50 ng/mL. It also gave a concentration at 6 h ([1]; male, Swiss Albino, mouse, brain homogenate, read-out: Total brain levels) of 8540 ng/g, a Cmax [1, 2] of 14400 ng/mL and a Tmax [1, 2] of 6 h. The “Relative number of Aβ plaques in brain vs placebo” value (Aβ plaques) was “decrease in the relative number of Aβ plaques”.
